One test concerns MCH receptors. Put plainly: MCH receptor activity class (method not given). The settings on record: MCH receptor activity class 1-3 (percent of control at 10^-7 M or IC50).
Consider `CN(C)c1ccnc(N[C@H]2CC[C@@H](NC(=S)Nc3ccc(Br)cc3C(F)(F)F)CC2)n1` [compound 2330], for which the class is 3 (Class 3 The value of percent of control at 10^−7 M was more than 60% or the value of IC50 was more than 200 nM.).
As for `Cc1cccc(C(C)C)c1NC(=O)NC[C@H]1CC[C@@H](Nc2cc(N(C)C)c3ccccc3n2)CC1` [compound 2379], the class is 2 (Class 2: The value of percent of control at 10^−7 M was from 40% to 60% or the value of IC′50 was from 50 nM to 200 nM.).
Same read-out and setting: the figure for `CC(C)c1ccccc1NC(=O)NC[C@H]1CC[C@@H](Nc2nccc(N(C)C)n2)CC1` [compound 2426] is 3 (Class 3 The value of percent of control at 10^−7 M was more than 60% or the value of IC50 was more than 200 nM.).

Still in this test, the particulars now being: MCH receptor; class by percent of control at 10^-7 M or IC50.
As for `CC(C)c1ccc(NC(=S)N[C@H]2CC[C@@H](Nc3nc4c(c(N(C)C)n3)CCCC4)CC2)cc1` [compound 2016], the class is listed as 3 (Class 3 The value of percent of control at 10^−7 M was more than 60% or the value of IC50 was more than 200 nM.).
The same measure, in the same setting: in the case of `CN(C)c1cc(N[C@H]2CC[C@@H](NC(=O)/C=C/c3ccc([N+](=O)[O-])cc3)CC2)nc2ccccc12` [compound 79] it was 3 (Class 3 The value of percent of control at 10^−7 M was more than 60% or the value of IC50 was more than 200 nM.); in that of `CN(C)c1cc(N[C@H]2CC[C@@H](CNC(=O)c3ccc(I)cc3)CC2)nc2ccccc12` [compound 168], 3 (Class 3 The value of percent of control at 10^−7 M was more than 60% or the value of IC50 was more than 200 nM.).
`Cc1ccc(Oc2ncccc2C(=O)N[C@H]2CC[C@@H](Nc3cc(N(C)C)c4ccccc4n3)CC2)cc1` [compound 137, N-(cis-4-{[4-(dimethylamino)quinolin-2-yl]amino}cyclohexyl)-2-(4-methylphenoxy)nicotinamide]: the class is given as 1 (Class 1: The value of percent of control at 10^−7 M was less than 40% or the value of IC50 was less than 50 nM.).
In the case of `COc1ccc(OC)c(CCNC(=S)N[C@H]2CC[C@@H](Nc3nc4c(c(N(C)C)n3)CCCC4)CC2)c1` [compound 2034], the class is given as 3 (Class 3 The value of percent of control at 10^−7 M was more than 60% or the value of IC50 was more than 200 nM.).

The test is the same for the next values; noted with them: activity class 1-3: percent of control at 10^-7 M or IC50.
For `CCCCCCCCOC(=O)NC[C@H]1CC[C@@H](Nc2nccc(N(C)C)n2)CC1` [compound 1646], the class is given as 3 (Class 3 The value of percent of control at 10^−7 M was more than 60% or the value of IC50 was more than 200 nM.).
On the same count and under the same terms, in the case of `CN(C)c1ccnc(N[C@H]2CC[C@@H](NC(=O)OCCOCc3ccccc3)CC2)n1` [compound 1619] it was 3 (Class 3 The value of percent of control at 10^−7 M was more than 60% or the value of IC50 was more than 200 nM.).

The same test, now with this note: activity class per percent of control at 10^-7 M or IC50.
For the molecule `COc1cc(CN[C@H]2CC[C@@H](Nc3cc(N(C)C)c4ccccc4n3)CC2)cc(OC)c1` [compound 1101], the class is 3 (Class 3 The value of percent of control at 10^−7 M was more than 60% or the value of IC50 was more than 200 nM.).
For the molecule `CN(C)c1nc(N[C@H]2CC[C@@H](NC(=O)c3scc(S(C)(=O)=O)c3Cl)CC2)nc2c1CCCC2` [compound 1040], the class is recorded as 3 (Class 3 The value of percent of control at 10^−7 M was more than 60% or the value of IC50 was more than 200 nM.).
Still for that read-out and setting: in the case of `COc1cc(CC(=O)N[C@H]2CC[C@@H](Nc3nc4c(c(N(C)C)n3)CCCC4)CC2)cc(OC)c1` [compound 978] it was 3 (Class 3 The value of percent of control at 10^−7 M was more than 60% or the value of IC50 was more than 200 nM.).

The same test, now with this note: class 1-3 by percent of control at 10^-7 M or IC50.
`CN(C)c1nc(N[C@H]2CC[C@@H](CNC(=O)c3ccc(F)cc3)CC2)nc2c1CCCC2` [compound 599]: the class is on record as 3 (Class 3 The value of percent of control at 10^−7 M was more than 60% or the value of IC50 was more than 200 nM.).
Still for that read-out and setting: the figure for `C/C(=C\c1ccccc1)C(=O)N[C@H]1CC[C@@H](Nc2nc3c(c(N(C)C)n2)CCCC3)CC1` [compound 523] is 3 (Class 3 The value of percent of control at 10^−7 M was more than 60% or the value of IC50 was more than 200 nM.); for `CN(C)c1nc(N[C@H]2CC[C@@H](NC(=O)c3cccs3)CC2)nc2c1CCCC2` [compound 488, N-(cis-4-{[4-(dimethylamino)-5,6,7,8-tetrahydroquinazolin-2-yl]amino}cyclohexyl)thiophene-2-carboxamide] it is 3 (Class 3 The value of percent of control at 10^−7 M was more than 60% or the value of IC50 was more than 200 nM.); for `CN(C)c1ccnc(N[C@H]2CC[C@@H](CNC(=O)c3cccc(F)c3F)CC2)n1` [compound 446] it is 3 (Class 3 The value of percent of control at 10^−7 M was more than 60% or the value of IC50 was more than 200 nM.).

The test is the same for the next values; noted with them: class by percent of control at 10^-7 M or IC50.
For `CSc1cccc(NC(=O)N[C@H]2CC[C@@H](Nc3nc4c(c(N(C)C)n3)CCCC4)CC2)c1` [compound 1865], the class was 3 (Class 3 The value of percent of control at 10^−7 M was more than 60% or the value of IC50 was more than 200 nM.).
Still for that read-out and setting: in the case of `CCOc1cc(OCC)c(OCC)cc1CNC[C@H]1CC[C@@H](Nc2nccc(N(C)C)n2)CC1` [compound 1295] it was 1 (Class 1: The value of percent of control at 10^−7 M was less than 40% or the value of IC50 was less than 50 nM.); in that of `CN(C)c1nc(N[C@H]2CC[C@@H](NC(=S)Nc3ccc(Cl)cc3C(F)(F)F)CC2)nc2c1CCCC2` [Example 1774], 2 (Class 2: The value of percent of control at 10^−7 M was from 40% to 60% or the value of IC′50 was from 50 nM to 200 nM.); in that of `CN(C)c1ccnc(N[C@H]2CC[C@@H](NC(=O)Nc3ccc(Br)cc3Br)CC2)n1` [compound 2229], 3 (Class 3 The value of percent of control at 10^−7 M was more than 60% or the value of IC50 was more than 200 nM.).
The same measure, in the same setting: in the case of `CN(C)c1cc(N[C@H]2CC[C@@H](CNCCCCCCCCc3ccccc3)CC2)nc2ccccc12` [compound 1467] it was 3 (Class 3 The value of percent of control at 10^−7 M was more than 60% or the value of IC50 was more than 200 nM.).
On the same count and under the same terms, in the case of `Cc1cc(C(=O)NC[C@H]2CC[C@@H](Nc3nc4c(c(N(C)C)n3)CCCC4)CC2)c(C)o1` [compound 633] it was 3 (Class 3 The value of percent of control at 10^−7 M was more than 60% or the value of IC50 was more than 200 nM.); in that of `CN(C)c1ccnc(N[C@H]2CC[C@@H](NC(=O)c3ccc([N+](=O)[O-])cc3)CC2)n1` [compound 909, N-(cis-4-{[4-(dimethylamino)pyrimidin-2-yl]amino}cyclohexyl)-4-nitrobenzamide], 2 (Class 2: The value of percent of control at 10^−7 M was from 40% to 60% or the value of IC′50 was from 50 nM to 200 nM.).
`CN(C)c1nc(N[C@H]2CC[C@@H](CNCc3cc(C(F)(F)F)cc(Cl)c3F)CC2)nc2c1CCCC2` [compound 1439]: the class is recorded as 3 (Class 3 The value of percent of control at 10^−7 M was more than 60% or the value of IC50 was more than 200 nM.).
Still for that read-out and setting: in the case of `CN(C)c1nc(N[C@H]2CC[C@@H](NCCc3cccc(Cl)c3)CC2)nc2c1CCCC2` [compound 1482] it was 3 (Class 3 The value of percent of control at 10^−7 M was more than 60% or the value of IC50 was more than 200 nM.); in that of `CN(C)c1ccnc(N[C@H]2CC[C@@H](CNC(=O)Cc3csc4ccccc34)CC2)n1` [compound 948], 1 (Class 1: The value of percent of control at 10^−7 M was less than 40% or the value of IC50 was less than 50 nM.).
Still for that read-out and setting: in the case of `CN(C)c1ccnc(N[C@H]2CC[C@@H](NC(=O)Nc3ccc(Br)cc3C(F)(F)F)CC2)n1` [compound 2242] it was 3 (Class 3 The value of percent of control at 10^−7 M was more than 60% or the value of IC50 was more than 200 nM.); in that of `CN(C)c1nc(N[C@H]2CC[C@@H](NC(=O)Nc3cc(C(F)(F)F)ccc3Cl)CC2)nc2c1CCCC2` [compound 1855], 3 (Class 3 The value of percent of control at 10^−7 M was more than 60% or the value of IC50 was more than 200 nM.).
Consider `CN(C)c1nc(N[C@H]2CC[C@@H](CNCc3ccc(Cl)cc3)CC2)nc2c1CCCC2` [compound 1391], for which the class is on record as 3 (Class 3 The value of percent of control at 10^−7 M was more than 60% or the value of IC50 was more than 200 nM.).
For `COc1ccc2[nH]c(C)c(CC(=O)NC[C@H]3CC[C@@H](Nc4nccc(N(C)C)n4)CC3)c2c1` [compound 933], the class was 3 (Class 3 The value of percent of control at 10^−7 M was more than 60% or the value of IC50 was more than 200 nM.).
On the same count and under the same terms, the figure for `CCCc1c(CNC[C@H]2CC[C@@H](Nc3cc(N(C)C)c4ccccc4n3)CC2)cnn1-c1ccc(Cl)cc1` [compound 1479] is 1 (Class 1: The value of percent of control at 10^−7 M was less than 40% or the value of IC50 was less than 50 nM.).

Staying with this test, now noted: class by percent of control at 10^−7 M or IC50.
On to `Cc1cc(N(C)C)nc(N[C@H]2CC[C@@H](CNC(=O)c3ccc(Cl)cc3)CC2)n1` [compound 2770, 4-chloro-N-[(cis-4-{[4-(dimethylamino)-6-methylpyrimidin-2-yl]amino}cyclohexyl)methyl]benzamide], for which the class is 2 (Class 2: The value of percent of control at 10^−7 M was from 40% to 60% or the value of IC′50 was from 50 nM to 200 nM.).
Still for that read-out and setting: in the case of `COc1cc(CNC(=O)[C@H]2CC[C@@H](Nc3nc(C)cc(N(C)C)n3)CC2)cc(OC)c1` [compound 2811, cis-N-(3,5-dimethoxybenzyl)-4-{[4-(dimethylamino)-6-methylpyrimidin-2-yl]amino}cyclohexanecarboxamide] it was 1 (Class 1: The value of percent of control at 10^−7 M was less than 40% or the value of IC50 was less than 50 nM.).
The same measure, in the same setting: in the case of `Cc1cnc(N[C@H]2CC[C@@H](NC(=O)CN(C)c3cccc(Cl)c3)CC2)nc1N(C)C` [compound 2941] it was 1 (Class 1: The value of percent of control at 10^−7 M was less than 40% or the value of IC50 was less than 50 nM.).
On the same count and under the same terms, the figure for `Cc1cc(N(C)C)nc(N[C@H]2CC[C@@H](NC(=O)c3ccc(Br)o3)CC2)n1` [compound 2979, 5-bromo-N-(cis-4-{[4-(dimethylamino)-6-methylpyrimidin-2-yl]amino}cyclohexyl)-2-furamide] is 1 (Class 1: The value of percent of control at 10^−7 M was less than 40% or the value of IC50 was less than 50 nM.).

The values above are taken from patent publication US20050197350A1, “Novel quinoline, tetrahydroquinazoline, and pyrimidine derivatives and methods of treatment related to the use thereof” (TAISHO PHARMACEUTICAL CO., LTD., priority 2003, published 2005).
